Reference: patent US8791258B2, “Pro-fluorescent probes” (The Regents of the University of California, priority 2008, dated 2014)

Assays:
HeLa cells [1] = conditions: cited from earlier work
[2] = Absorption and emission properties, fluorescence quantum yield; assay type: physicochemical; conditions: 20 mM HEPES, pH 7
Experimental: (§1) Millipore water was used to prepare all aqueous solutions. All spectroscopic measurements were performed in 20 mM HEPES buffer, pH 7. Absorption spectra were recorded using a Varian Cary 50 spectrophotometer (Walnut Creek, Calif.). Fluorescence spectra were recorded using a Photon Technology International Quanta Master 4 L-format scanning spectrofluorometer (Lawrenceville, N.J.) equipped with an LPS-220B 75-W xenon lamp and power supply, A-1010B lamp housing with integrated igniter, switchable 814 photon-counting/analog photomultiplier detection unit, and MD5020 motor driver. Samples for absorption and fluorescence measurements were contained in 1-cm×1-cm quartz cuvettes (1.4- or 3.5-mL volume, Starna, Atascadero, Calif.).
as §1, with “recorded on” for “recorded using”, “Creek, Calif.) and fluorescence” for “Creek, Calif.). Fluorescence”, “and emission” for “and fluorescence”, “cuvettes (1.5-mL” for “cuvettes (1.4- or 3.5-mL”, “Calif.). Fluorescence quantum yields were determined by reference to fluorescein in 0.1M NaOH (Φ=0.95).” for “Calif.).”

[3] = Kinetics of H2O2-mediated boronate deprotection; conditions: pseudo-first-order conditions, 5 μM dye, 10 mM H2O2
Experimental: (§2) MitoPY1 features two major visible region absorptions (λabs=489 nm, ε=14,300 M^−1 cm^−1; 510 nm, ε=14,200 M^−1 cm^−1) and a weak emission (λ=540 nm, Φ=0.019, FIG. S1) in 20 mM HEPES, pH 7. […] Kinetics measurements of the H2O2-mediated boronate deprotection were performed under pseudo-first-order conditions (5 μM dye, 10 mM H2O2), giving an observed rate constant of k=2.0(1)×10^−3 s^−1.

[4] = Turn-on fluorescence responses to a panel of biologically relevant ROS; conditions: 20 mM HEPES, pH 7, 25° C.
Experimental: Bars represent relative responses at 0, 5, 15, 30, 45, and 60 min after addition of each ROS. Data shown are for 10 mM O2- (with 10 μM catalase), 200 μM NO, and 100 μM for all other ROS. Data were acquired at 25° C. in 20 mM HEPES, pH 7, with excitation at λ=510 nm and emission collected between 518 and 750 nm.
as §2

HeLa cells [5] = assay type: cell-based
Experimental: 100 μM H2O2 was then added to one of the petri dishes. At 20 minutes, 50 nM MitoTracker Deep Red, 500 nM Lysotracker Red, and 1 μM Hoechst 33342 were added to both dishes. After an additional 20 minutes (40 minute stimulation total), the two coverslips were put in a single, new petri dish filled with fresh DPBS and confocal images were taken (3.2 μsec pixel time, 100% laser power for 514 line, 4.1% laser power for the 633 line, 26% laser power for the 543 line, scanned using 12-bit multi-track scan mode using a constant receiver gain). Shown above are signals from MitoPY1 (a), MitoTracker Deep Red (b), LysoTracker Red (c), an overlay of MitoTracker Deep Red and MitoPY1 (d), Hoechst (e), and a brightfield image (f) of cells not treated with H2O2, as well as signals from MitoPY1 (g), MitoTracker Deep Red (h), LysoTracker Red (i), an overlay of MitoTracker Deep Red and MitoPY1 (j), Hoechst (k), and a brightfield image (l) of cells treated with H2O2. A 20 μm scale bar shown for all images.
HeLa cells incubated with 5 μM MitoPY1 for 60 min at 37° C. and imaged with MitoPY1 (a), MitoTracker Red and Hoechst (overlay, b), and MitoPY1 with MitoTracker Red (overlay, c). HeLa cells incubated with 5 μM MitoPY1 for 60 min at 37° C. with 100 μM H2O2 added for the final 40 min and imaged with MitoPY1 (d), MitoTracker Red and Hoechst (overlay, e), MitoPY1 and MitoTracker Red (overlay, f), and brightfield (g) with 20 μm scale bar. HeLa cells incubated with 5 μM MitoPY1 for 60 min at 37° C. and imaged with MitoPY1 (h), MitoTracker Red and Hoechst (overlay, i), and MitoPY1 with MitoTracker Red (overlay, j). HeLa cells incubated for 24 h with 1 mM paraquat, then washed and incubated with 5 μM MitoPY1 for 60 min at 37° C. and imaged with MitoPY1 (k), MitoTracker Red and Hoechst (overlay, l), MitoPY1 and MitoTracker Red (overlay, m), and brightfield (n) with 20 μm scale bar.
HEK293 cells were cultured in DMEM (Invitrogen) supplemented with 10% fetal bovine serum (FBS, Hyclone) and glutamine (2 mM). CHO.K1 cells were cultured in DMEM with F-12 supplements, glutamax (Invitrogen), and 5% FBS. Cos-7 cells were cultured in DMEM with high glucose, glutamax, 10% FBS, and non-essential amino acids (Invitrogen). HeLa cells were cultured in DMEM with high glucose, glutamax, and 10% FBS. Two days before imaging, cells were passaged and plated on 18-mm glass coverslips. For all experiments, solutions of dyes (from 5 mM stocks in DMSO) were made in DBPS with calcium chloride and magnesium chloride (Sigma). H2O2 was added by bath application to the medium from a 100 mM aqueous stock. For paraquat treatment, HeLa cells were cultured as described above. One day prior to imaging, 1 mM paraquat was added to cells from a 0.5 M stock solution in water. An equal amount of water was added to control cells at the same time. Cells were then incubated at 37° C., 5% CO2. After 24 hours, the media was exchanged for DPBS with 5 μM dye and incubated for 1 hour.
Confocal fluorescence imaging studies were performed with a Zeiss LSM510 NLO Axiovert 200 laser scanning microscope and a 63× Achroplan IR water-immersion objective lens. Excitation of PY-loaded cells at 510 nm was carried out with an Ar laser and emission was collected using a META detector between 527-580 nm. MitoTracker Deep Red was excited with a 633-nm line and emission was collected between 666-698 nm. LysoTracker Red was excited with a 543-nm line and emission was collected between 580-644 nm. Excitation of Hoechst 33342 was carried out using a MaiTai two-photon laser at 780-nm pulses (mode-locked Ti:sapphire laser, Tsunami Spectra Physics) and emission was collected between 452-537 nm. Image analysis was performed in Adobe Photoshop.
MitoPY1 was tested for its ability to both target the mitochondria and respond to H2O2 in living biological systems. […] Again, co-staining with MitoTracker confirms that the dye is retained in the mitochondria and detects localized rises in H2O2 concentrations.

| Compound | IC50 (HeLa cells [1]) | fluorescence quantum yield Φ ([2]; by reference to fluorescein) | extinction coefficient ε at 489 nm ([2]; λabs 489 nm) | extinction coefficient ε at 510 nm ([2]; λabs 510 nm) | observed rate constant k of H2O2-mediated boronate deprotection [3] | selectivity of turn-on response for H2O2 over other ROS [4] | cell viability during imaging (HeLa cells [5]) | fluorescence of probe-loaded cells without H2O2 (HeLa cells [5]; 5 μM probe, 1 h at 37° C.) | subcellular localization (co-staining with MitoTracker Deep Red, LysoTracker Red) (HeLa cells [5]; 5 μM probe, 50 nM MitoTracker Deep Red, 500 nM LysoTracker Red) | fluorescence after addition of H2O2 compared to control cells (HeLa cells [5]; 100 μM H2O2) | detection of endogenous mitochondrial H2O2 in paraquat-treated cells (HeLa cells [5]; 1 mM paraquat 24 h, then 5 μM probe, compared to control cells) |
| --- | --- | --- | --- | --- | --- | --- | --- | --- | --- | --- | --- |
| C[n+]1ccc(-c2cc[n+](C)cc2)cc1 [paraquat] | 1.02 mM |  |  |  |  |  |  |  |  |  |  |
| CC1(C)OB(c2ccc3c(c2)Oc2cc(N4CCN(CCCC[P+](c5ccccc5)(c5ccccc5)c5ccccc5)CC4)ccc2C32OC(=O)c3ccccc32)OC1(C)C.[I-] (centres unmarked) [MitoPY1] |  | 0.019 | 14,300 M^−1 cm^−1 | 14,200 M^−1 cm^−1 | 2.0(1)×10^−3 s^−1 | selective for H2O2 over ROS like superoxide, nitric oxide, and hydroxyl radical | cells are viable throughout the imaging experiments | faint but measurable levels of fluorescence | localized to the mitochondria | marked localized increase in fluorescence | clear increases in mitochondrial-localized H2O2 levels |
